Data from article PMC4926073, “Absorption and Transport of Sea Cucumber Saponins from Apostichopus japonicus” (Marine Drugs, 2016).
Like-named read-outs stand apart in the source and are kept apart here.

What was measured:
in vitro = conditions: human; for recovery: Caco-2, Recovery (AP + BL chambers + cell monolayer)
in vivo [1] = conditions: rat
Method: (§1) Data were expressed as the means ± SD of three determinations: Peff = −Q ln [Cout/Cin]/2πrl(2)
(§2) In which Cin is the inlet concentration and Cout is the outlet concentration of compound, which is corrected for volume change in the segment using phenol red concentration in the inlet and outlet tubing. Q is the flow rate (0.2 mL/min), r is the rat intestinal radius (0.18 cm), and l is the length of the segment [32].
(§3) The rats were anaesthetized with an intra-abdominal injection of 10% chloral hydrate at a dose of 5 mL/kg. The enterocoelia of the rat was dissected by a 3–4 cm midline length, a segment of intestine about 10 cm long was separated and washed with saline. Silicone tubing was inserted into both sides of the segment of intestine and a peristaltic pump was connected to the proximal side of the tube. A pledget with saline was added onto the surgical area to avoid loss of fluid. The segment was cleared with 37 °C saline firstly, then blank K-R buffer solution was infused at the inlet and blank perfusate was collected at the outlet. The segment was infused with perfusate containing phenol red and different concentrations of sea cucumber saponins (1, 5, and 25 μg/mL) at a flow rate of 2 mL/min. Then the rate was reduced to 0.2 mL/min for 30 min until steady-state. Samples were obtained from the outlet of the segment every 15 min and stored at −20 °C for analysis. Different concentrations of sea cucumber saponins were perfused to highlight the absorption mechanism of sea cucumber saponins, which were investigated by the concentration-dependent change of the permeability values. 400 μg/mL verapamil was added to the perfusion solution containing 5 μg/mL sea cucumber saponins and 20 μg/mL phenol red to investigate whether the intestinal absorption of sea cucumber saponins were affected by P-gp.

[2] = Single-pass intestinal perfusion in rats; conditions: for concentration-dependent changes in permeability: 1, 5, 25 μg/mL
Method: as §1, §2, §3

Caco-2 cell monolayer [3] = conditions: human
[4] = rat, in vivo, 20 mg/kg
in vivo [5] = conditions: male, Wistar, rat, iv, 20 mg/kg
[6] = rat
[7] = rat; remark: listed apart in the source
Method: as §1, §2, §3

Caco-2 cell monolayer [8] = test: Transepithelial transport across Caco-2 cell monolayer
[9] = In vivo pharmacokinetics in rats after oral administration; conditions: 20 mg/kg
[10] = Freeze-thaw, short-term and long-term stability in rat plasma; conditions: for Short-Term Stability, Accuracy (%): ambient temperature 24 h; for Long-Term Stability, Accuracy (%): ambient temperature 5 d
[11] = Freeze-thaw, short-term and long-term stability in perfusate (Krebs-Ringer buffer solution); conditions: for Short-Term Stability, Accuracy (%): ambient temperature 24 h; for Long-Term Stability, Accuracy (%): ambient temperature 5 d
[12] = nominal conc. 100.00 ng/mL, frozen at −20 °C 24 h, thawed at ambient temperature
[13] = range over freeze-thaw, short-term, long-term and both compounds

CC(C)NCC(O)COc1cccc2ccccc12 (stereo not shown) [propranolol, reference compound]
Papp A→B at 150 min, 20 µM (in vitro; Caco-2): 26.1 ± 1.2 ×10⁻⁶ cm/s

C=C(C)CCCC1(C)OC(=O)C23CC=C4C(CCC5C4(C)CCC(OC4OCC(OC6OC(CO)C(O)C(OC7OC(CO)C(O)C(OC)C7O)C6O)C(O)C4OC4OC(C)C(OC6OCC(O)C(OC7OC(CO)C(O)C(OC)C7O)C6O)C(O)C4O)C5(C)C)C2(C)CC(=O)C13 (stereo not shown) [Holotoxin A1]
Papp (in vivo [1]): 2.67 ×10⁻⁶ cm/s
Papp A→B (in vitro; Caco-2): < 0.83 ×10⁻⁶ cm/s
Papp B→A (in vitro; Caco-2): < 0.83 ×10⁻⁶ cm/s
concentration-dependent changes in permeability [2]: not found
Papp AP-BL (Caco-2 cell monolayer [3]): <0.83 × 10^−6, cm·s^−1
PappAB (Papp AP to BL) (Caco-2 cell monolayer [3]): less than 0.83 × 10^−6 cm·s^−1
detection in the plasma after oral administration [4]: not detected
AUC (in vivo [5]): 6530 ± 150 ng·h/mL
Cmax (in vivo [5]): 2870 ± 170 ng/mL
Tmax (in vivo [5]): 4.8 min
half-life (in vivo [5]): 4.4 ± 0.06 h
stability in plasma under three conditions [6]: 93.4%–102.4
change in permeability when verapamil was added to the perfusate [7]: No significant increase
AP Chamber (%) recovered (Caco-2 cell monolayer [8]; time 60 min): 97.66 ± 2.02%
AP Chamber (%) recovered (Caco-2 cell monolayer [8]; time 90 min): 96.56 ± 1.89%
AP Chamber (%) recovered (Caco-2 cell monolayer [8]; time 120 min): 95.46 ± 1.72%
AP Chamber (%) recovered (Caco-2 cell monolayer [8]; time 150 min): 95.90 ± 2.27%
BL Chamber (%) recovered (Caco-2 cell monolayer [8]; time 150 min): <0.2%
Cell Fraction (%) recovered (Caco-2 cell monolayer [8]; time 150 min): <0.2%

CO[C@@H]1[C@@H](O)[C@H](O[C@@H]2[C@@H](O)[C@H](O[C@H]3[C@H](O)[C@@H](O)[C@H](O[C@H]4[C@H](O[C@H]5CC[C@]6(C)C7=C[C@H](O)[C@]89C(=O)O[C@@](C)(CCCC(C)C)[C@@]8(O)CC[C@@]9(C)C7CCC6C5(C)C)OC[C@@H](OS(=O)(=O)O)[C@@H]4O)O[C@@H]3C)O[C@H](CO)[C@H]2O)O[C@H](CO)[C@H]1O (stereo partly shown) [Echinoside A]
Papp A→B (in vitro; Caco-2): 3.96 ± 0.55 ×10⁻⁶ cm/s
Papp B→A (in vitro; Caco-2): 5.38 ± 0.81 ×10⁻⁶ cm/s
recovery (in vitro; time 60 min): 97.4 ± 2.76%
recovery (in vitro; time 90 min): 98.2 ± 1.97%
recovery (in vitro; time 120 min): 96.6 ± 2.33%
recovery (in vitro; time 150 min): 96.5 ± 2.04%
concentration-dependent changes in permeability ([2]; rat single-pass intestinal perfusion): not found
change in permeability when verapamil was added to the perfusate ([2]; rat single-pass intestinal perfusion, verapamil 400 μg/mL): No significant increase
Papp ([2]; rat, other: single-pass intestinal perfusion): 25 ×10⁻⁶ cm/s
bioavailability ([9]; male, Wistar, rat, in vivo): 59%
AUC ([9]; male, Wistar, rat, in vivo, po): 9270 ± 390 ng·h/mL
Cmax ([9]; male, Wistar, rat, in vivo, po): 910 ± 20 ng/mL
half-life ([9]; male, Wistar, rat, in vivo, po, T1/2, rat): 6.99 h
Tmax ([9]; male, Wistar, rat, in vivo, po, Tmax): ≤ 3 h
time at which detected in rat plasma after oral administration ([9]; oral): 1 h
T1/2 ([9]; rat, oral): 6.9 ± 0.32 h
max value of the concentration in the plasma ([9]; rat, oral): 910 ng/mL
Papp AP-BL (Caco-2 cell monolayer [3]): 4.04 ± 0.39 × 10^−6, cm·s^−1
Papp BL-AP (Caco-2 cell monolayer [3]): 5.33 ± 0.70 × 10^−6, cm·s^−1
AUC (in vivo [5]): 16400 ± 450 ng·h/mL
Cmax (in vivo [5]): 4000 ± 440 ng/mL
Tmax (in vivo [5]): 4.8 min
half-life (in vivo [5]): 8.52 ± 0.32 h
Short-Term Stability, Accuracy (%) ([10]; nominal conc. 100.00 ng/mL): 95.4%
Long-Term Stability, Accuracy (%) ([10]; nominal conc. 100.00 ng/mL): 97.2%
Freeze-Thaw Stability, Accuracy (%) [10, 12]: 94.4%
Freeze-Thaw Stability, Accuracy (%) ([10]; nominal conc. 1000.00 ng/mL): 96.7%
Short-Term Stability, Accuracy (%) ([10]; nominal conc. 1000.00 ng/mL): 96.0%
Long-Term Stability, Accuracy (%) ([10]; nominal conc. 1000.00 ng/mL): 102.1%
Freeze-Thaw Stability, Accuracy (%) ([10]; nominal conc. 5000.00 ng/mL): 98.9%
Short-Term Stability, Accuracy (%) ([10]; nominal conc. 5000.00 ng/mL): 102.4%
Long-Term Stability, Accuracy (%) ([10]; nominal conc. 5000.00 ng/mL): 100.3%
stability in plasma under three conditions [10, 13]: 93.4%–102.4
AP Chamber (%) recovered (Caco-2 cell monolayer [8]; time 60 min): 82.14 ± 2.85%
BL Chamber (%) recovered (Caco-2 cell monolayer [8]; time 60 min): 1.04 ± 0.12%
Cell Fraction (%) recovered (Caco-2 cell monolayer [8]; time 60 min): 14.22 ± 1.14%
AP Chamber (%) recovered (Caco-2 cell monolayer [8]; time 90 min): 81.63 ± 2.04%
BL Chamber (%) recovered (Caco-2 cell monolayer [8]; time 90 min): 1.51 ± 0.11%
Cell Fraction (%) recovered (Caco-2 cell monolayer [8]; time 90 min): 15.05 ± 1.29%
AP Chamber (%) recovered (Caco-2 cell monolayer [8]; time 120 min): 80.25 ± 2.67%
BL Chamber (%) recovered (Caco-2 cell monolayer [8]; time 120 min): 1.90 ± 0.20%
Cell Fraction (%) recovered (Caco-2 cell monolayer [8]; time 120 min): 14.43 ± 1.24%
AP Chamber (%) recovered (Caco-2 cell monolayer [8]; time 150 min): 79.38 ± 2.21%
BL Chamber (%) recovered (Caco-2 cell monolayer [8]; time 150 min): 2.36 ± 0.21%
Cell Fraction (%) recovered (Caco-2 cell monolayer [8]; time 150 min): 14.78 ± 0.92%
transport mechanism across Caco-2 monolayer (Caco-2 cell monolayer [8]; with and without P-gp inhibitor verapamil 100 μM): transported by passive diffusion without the participation of P-gp
Short-Term Stability, Accuracy (%) ([11]; nominal conc. 100.00 ng/mL): 90.8%
Long-Term Stability, Accuracy (%) ([11]; nominal conc. 100.00 ng/mL): 89.2%
Freeze-Thaw Stability, Accuracy (%) [11, 12]: 91.6%
Freeze-Thaw Stability, Accuracy (%) ([11]; nominal conc. 1000.00 ng/mL): 91.9%
Short-Term Stability, Accuracy (%) ([11]; nominal conc. 1000.00 ng/mL): 91.3%
Long-Term Stability, Accuracy (%) ([11]; nominal conc. 1000.00 ng/mL): 92.6%
Freeze-Thaw Stability, Accuracy (%) ([11]; nominal conc. 5000.00 ng/mL): 93.5%
Short-Term Stability, Accuracy (%) ([11]; nominal conc. 5000.00 ng/mL): 94.4%
Long-Term Stability, Accuracy (%) ([11]; nominal conc. 5000.00 ng/mL): 91.1%
stability in perfusate under three conditions [11, 13]: 88.2%–94.8
